Test results from patent US20240409585A1, “MACROCYCLIC IMMUNOMODULATORS” (priority 2021, published 2024).
Bridge positions count the residues as written; N and C are the ends. Square brackets hold non-standard residues; d marks the D form. Peptide text beside a SMILES is read from it. * marks the point of attachment. ξ: configuration not given here. Phe(4-COOH) = N[C@@H](Cc1ccc(C(=O)O)cc1)C(=O)O; Bip = N[C@@H](Cc1ccc(-c2ccccc2)cc1)C(=O)O; Phe(3-CN) = N#Cc1cccc(C[C@H](N)C(=O)O)c1; Phe(3-F) = N[C@@H](Cc1cccc(F)c1)C(=O)O; Phe(3-Me) = Cc1cccc(C[C@H](N)C(=O)O)c1; Bta = N[C@@H](Cc1csc2ccccc12)C(=O)O; Val(3-OH) = CC(C)(O)[C@H](N)C(=O)O; aIle = CC[C@@H](C)[C@H](N)C(=O)O; 4Pal = N[C@@H](Cc1ccncc1)C(=O)O; 2Thi = N[C@@H](Cc1cccs1)C(=O)O; Cha = N[C@@H](CC1CCCCC1)C(=O)O; Cit = NC(=O)NCCC[C@H](N)C(=O)O; Thr(3ξ) = CC(O)[C@H](N)C(=O)O; ξIle = CC[C@H](C)C(N)C(=O)O; Carboxymethyl = O=C(O)C*; NMeA = CN[C@@H](C)C(=O)O; Nle = CCCC[C@H](N)C(=O)O; Pra = C#CC[C@H](N)C(=O)O; Dab = NCC[C@H](N)C(=O)O; Dap = NC[C@H](N)C(=O)O; Piv = CC(C)(C)C(=O)*

Target: T1, PE-labeled human PD-L1-Ig binding to Jurkat cell line over-expressing human PD-1 (Jurkat-PD-1) (Homo sapiens, UniProt Q15116)
T1 construct: expressed in transfected cells; host or cells: Jurkat
Assay: Jurkat-PD-1 Cell Binding High-Content Screening Assay (CBA): Method 1
Conditions: Jurkat-hPD-1 cells, PE-labeled PD-L1-Ig 20 nM final; read-out: Jurkat HPDL1 PD1 IC50 (uM) (Method 1)

T1 sequence (Q15116 25-288): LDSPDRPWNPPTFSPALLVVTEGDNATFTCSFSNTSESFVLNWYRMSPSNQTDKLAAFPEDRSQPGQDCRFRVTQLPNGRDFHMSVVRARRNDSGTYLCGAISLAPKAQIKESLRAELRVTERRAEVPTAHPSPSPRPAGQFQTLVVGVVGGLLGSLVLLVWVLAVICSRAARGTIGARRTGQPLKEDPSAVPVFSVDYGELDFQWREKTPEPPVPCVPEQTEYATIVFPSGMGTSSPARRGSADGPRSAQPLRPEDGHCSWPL

Row | SMILES | IC50 [µM]
1 | CCCC[C@@H]1NC(=O)[C@H](CCN)NC(=O)[C@@H](CC(C)C)NC(=O)[C@H](C)N(C)C(=O)[C@H](CCCNC(=N)N)NC(=O)[C@H](Cc2ccc(-c3ccccc3)cc2)NC(=O)[C@H](C(C)C)NC(=O)[C@H](Cc2c[nH]c3ccccc23)NC(=O)[C@H](CC(=O)O)NC(=O)[C@H](Cc2ccc(O)cc2)NC(=O)[C@H](CC(N)=O)NC(=O)CSC[C@@H](C(=O)N[C@@H](C)C(N)=O)NC(=O)[C@H]([C@@H](C)O)NC(=O)[C@H](C(C)C)NC1=O [Compound 1283] ({CH2CO}-NYDWV[Bip]R[NMeA][dL][Dab][Nle]VTCA-NH2; thioether N-14) | 0.04
2 | C#CC[C@H](NC(=O)[C@@H](C)NC(=O)[C@@H]1CSCC(=O)N[C@@H]([C@@H](C)O)C(=O)N[C@@H](Cc2ccc(C(=O)O)cc2)C(=O)N[C@@H](CC(=O)O)C(=O)N[C@@H](Cc2cccc(C)c2)C(=O)N[C@@H](Cc2ccc(C(=O)O)cc2)C(=O)N[C@@H](Cc2ccc(-c3ccccc3)cc2)C(=O)N[C@@H](Cc2ccc(OCC(=O)O)cc2)C(=O)N(C)[C@@H](C)C(=O)N[C@H](CC(C)C)C(=O)N[C@@H](CCN)C(=O)N[C@@H](CC2CCCCC2)C(=O)N[C@@H](C(C)(C)O)C(=O)N[C@@H](CCC(=O)O)C(=O)N1)C(N)=O [Compound 1947] ({CH2CO}-T[Phe(4-COOH)]D[Phe(3-Me)][Phe(4-COOH)][Bip]Y(Carboxymethyl)[NMeA][dL][Dab][Cha][Val(3-OH)]EC[dA][Pra]-NH2; thioether N-14) | 0.43
3 | Cc1cccc(C[C@@H]2NC(=O)[C@H](CC(=O)O)NC(=O)[C@H](Cc3ccc(OCC(=O)O)cc3)NC(=O)[C@H](Cc3ccncc3)NC(=O)CSC[C@@H](C(=O)N[C@@H](CCN)C(N)=O)NC(=O)[C@H]([C@@H](C)O)NC(=O)[C@H](C(C)C)NC(=O)[C@H](CC3CCCCC3)NC(=O)[C@H](CCNC(=O)C(C)(C)C)NC(=O)[C@@H](CC(C)C)NC(=O)[C@H](C)N(C)C(=O)[C@H](Cc3ccc(OCC(=O)O)cc3)NC(=O)[C@H](Cc3ccc(-c4ccccc4)cc3)NC(=O)[C@H](Cc3ccc(OCC(=O)O)cc3)NC2=O)c1 [Compound 1865] ({CH2CO}-[4Pal]Y(Carboxymethyl)D[Phe(3-Me)]Y(Carboxymethyl)[Bip]Y(Carboxymethyl)[NMeA][dL][Dab](Piv)[Cha]VTC[Dab]-NH2; thioether N-14) | 0.02
4 | Cc1cccc(C[C@@H]2NC(=O)[C@H](CC(=O)O)NC(=O)[C@H](Cc3ccc(OCC(=O)O)cc3)NC(=O)[C@H](Cc3ccc(OCC(=O)O)cc3)NC(=O)CSC[C@@H](C(N)=O)NC(=O)[C@H](CCC(N)=O)NC(=O)[C@H](C(C)C)NC(=O)[C@H](CC3CCCCC3)NC(=O)[C@H](CCN)NC(=O)[C@@H](CC(C)C)NC(=O)[C@H](C)N(C)C(=O)[C@H](Cc3ccc(OCC(=O)O)cc3)NC(=O)[C@H](Cc3ccc(-c4ccccc4)cc3)NC(=O)[C@H](Cc3ccc(OCC(=O)O)cc3)NC2=O)c1 [Compound 1655] ({CH2CO}-Y(Carboxymethyl)Y(Carboxymethyl)D[Phe(3-Me)]Y(Carboxymethyl)[Bip]Y(Carboxymethyl)[NMeA][dL][Dab][Cha]VQC-NH2; thioether N-14) | 0.03
5 | CC(C)C[C@@H]1NC(=O)[C@H](CCCNC(=N)N)NC(=O)[C@H](Cc2csc3ccccc23)NC(=O)[C@H](C)N(C)C(=O)[C@H](CCCNC(=N)N)NC(=O)[C@H](Cc2ccc(-c3ccccc3)cc2)NC(=O)[C@H](C(C)C)NC(=O)[C@H](Cc2c[nH]c3ccccc23)NC(=O)[C@H](CC(=O)O)NC(=O)[C@H](Cc2ccc(O)cc2)NC(=O)[C@H](Cc2cnc[nH]2)NC(=O)CSC[C@@H](C(=O)N[C@@H](C)C(N)=O)NC(=O)[C@H](CO)NC(=O)[C@H](C(C)C)NC1=O [Compound 1040] ({CH2CO}-HYDWV[Bip]R[NMeA][Bta]RLVSCA-NH2; thioether N-14) | 0.17
6 | CCNC(=O)[C@H](CCN)NC(=O)[C@@H]1CSCC(=O)N[C@@H](Cc2cccs2)C(=O)N[C@@H](Cc2cccc(C#N)c2)C(=O)N[C@@H](CC(=O)O)C(=O)N[C@@H](Cc2cccc(C)c2)C(=O)N[C@@H](Cc2cccc(F)c2)C(=O)N[C@@H](Cc2ccc(-c3ccccc3)cc2)C(=O)N[C@@H](C(C)C)C(=O)N(C)[C@@H](C)C(=O)N[C@H](CC(C)C)C(=O)N[C@@H](CCN)C(=O)N[C@@H](CC2CCCCC2)C(=O)N[C@@H](C(C)(C)O)C(=O)N[C@@H](CO)C(=O)N1 [Compound 1840] ({CH2CO}-[2Thi][Phe(3-CN)]D[Phe(3-Me)][Phe(3-F)][Bip]V[NMeA][dL][Dab][Cha][Val(3-OH)]SC[Dab]-NHEt; thioether N-14) | 0.05
7 | CC(C)C[C@@H]1NC(=O)[C@H](CCN)NC(=O)[C@@H](CC(C)C)NC(=O)[C@H](C)N(C)C(=O)[C@H](CCCNC(=N)N)NC(=O)[C@H](Cc2ccc(-c3ccccc3)cc2)NC(=O)[C@H](C(C)C)NC(=O)[C@H](Cc2c[nH]c3ccccc23)NC(=O)[C@H](CC(=O)O)NC(=O)[C@H](Cc2ccc(OCC(=O)O)cc2)NC(=O)[C@H](CC(N)=O)NC(=O)CSC[C@@H](C(=O)N[C@@H](C)C(N)=O)NC(=O)[C@H]([C@@H](C)O)NC(=O)[C@H](C(C)C)NC1=O [Compound 1138] ({CH2CO}-NY(Carboxymethyl)DWV[Bip]R[NMeA][dL][Dab]LVTCA-NH2; thioether N-14) | 0.07
8 | CC(C)C[C@@H]1NC(=O)[C@H](CCC(=O)O)NC(=O)[C@@H](CC(C)C)NC(=O)[C@H](C)N(C)C(=O)[C@H](CCCCN)NC(=O)[C@H](Cc2ccc(-c3ccccc3)cc2)NC(=O)[C@H](C(C)C)NC(=O)[C@H](Cc2c[nH]c3ccccc23)NC(=O)[C@H](CC(=O)O)NC(=O)[C@H](Cc2ccc(O)cc2)NC(=O)[C@H](Cc2ccncc2)NC(=O)CSC[C@@H](C(=O)N[C@@H](C)C(N)=O)NC(=O)[C@H](C(C)O)NC(=O)[C@H](C(C)C)NC1=O (stereo partly drawn) [Compound 2058] ({CH2CO}-[4Pal]YDWV[Bip]K[NMeA][dL]ELV[Thr(3ξ)]CA-NH2; thioether N-14) | 0.04
9 | CC(C)C[C@@H]1NC(=O)[C@H](Cc2c[nH]c3ccccc23)NC(=O)[C@H](CC(=O)O)NC(=O)[C@H](Cc2ccc(C(=O)O)cc2)NC(=O)[C@H](Cc2ccc(OCC(=O)O)cc2)NC(=O)CSC[C@@H](C(=O)N[C@@H](CC(N)=O)C(N)=O)NC(=O)[C@H](CO)NC(=O)[C@H](C(C)C)NC(=O)[C@H](CC2CCCCC2)NC(=O)[C@H](CCN)NC(=O)[C@@H](CC(C)C)NC(=O)[C@H](C)N(C)C(=O)[C@H](C(C)C)NC(=O)[C@H](Cc2ccc(-c3ccccc3)cc2)NC1=O [Compound 1911] ({CH2CO}-Y(Carboxymethyl)[Phe(4-COOH)]DWL[Bip]V[NMeA][dL][Dab][Cha]VSCN-NH2; thioether N-14) | 0.01
10 | CC[C@@H](C)[C@@H]1NC(=O)[C@H](Cc2ccc(-c3ccccc3)cc2)NC(=O)[C@H](CC(C)C)NC(=O)[C@H](Cc2cccc(C)c2)NC(=O)[C@H](CC(=O)O)NC(=O)[C@H](Cc2ccc(OCC(=O)O)cc2)NC(=O)[C@H](CN)NC(=O)CSC[C@@H](C(N)=O)NC(=O)[C@H](CO)NC(=O)[C@H](C(C)C)NC(=O)[C@H](CC(C)C)NC(=O)[C@H](CC(N)=O)NC(=O)[C@@H](CC(C)C)NC(=O)[C@H](C)N(C)C1=O [Compound 1640] ({CH2CO}-[Dap]Y(Carboxymethyl)D[Phe(3-Me)]L[Bip][aIle][NMeA][dL]NLVSC-NH2; thioether N-14) | 0.1
11 | CCCC[C@@H]1NC(=O)[C@H](CCCNC(=N)N)NC(=O)[C@@H](CC(C)C)NC(=O)[C@H](C)N(C)C(=O)[C@H]([C@@H](C)CC)NC(=O)[C@H](Cc2ccc(-c3ccccc3)cc2)NC(=O)[C@H](C(C)C)NC(=O)[C@H](Cc2c[nH]c3ccccc23)NC(=O)[C@H](CC(=O)O)NC(=O)[C@H](Cc2ccc(O)cc2)NC(=O)[C@H](CC(N)=O)NC(=O)CSC[C@@H](C(=O)N[C@@H](C)C(N)=O)NC(=O)[C@H]([C@@H](C)O)NC(=O)[C@H](C(C)C)NC1=O [Compound 1498] ({CH2CO}-NYDWV[Bip]I[NMeA][dL]R[Nle]VTCA-NH2; thioether N-14) | 0.12
12 | Cc1cccc(C[C@@H]2NC(=O)[C@H](CC(=O)O)NC(=O)[C@H](Cc3ccc(OCC(=O)O)cc3)NC(=O)[C@H](C(C)C)NC(=O)CSC[C@@H](C(=O)N[C@@H](CN)C(N)=O)NC(=O)[C@H](C(C)O)NC(=O)[C@H](C(C)(C)O)NC(=O)[C@H](CC3CCCCC3)NC(=O)[C@H](CCN)NC(=O)[C@@H](CC(C)C)NC(=O)[C@H](C)N(C)C(=O)[C@H](CCCNC(N)=O)NC(=O)[C@H](Cc3ccc(-c4ccccc4)cc3)NC(=O)[C@H](Cc3ccc(OCC(=O)O)cc3)NC2=O)c1 (stereo partly drawn) [Compound 2167] ({CH2CO}-VY(Carboxymethyl)D[Phe(3-Me)]Y(Carboxymethyl)[Bip][Cit][NMeA][dL][Dab][Cha][Val(3-OH)][Thr(3ξ)]C[Dap]-NH2; thioether N-14) | 0.05
13 | CC(C)C[C@@H]1NC(=O)[C@H](CCCNC(=N)N)NC(=O)[C@@H](CC(C)C)NC(=O)[C@H](C)N(C)C(=O)[C@H](CCCNC(=N)N)NC(=O)[C@H](Cc2ccc(-c3ccccc3)cc2)NC(=O)[C@H](C(C)C)NC(=O)[C@H](Cc2c[nH]c3ccccc23)NC(=O)[C@H](CC(=O)O)NC(=O)[C@H](Cc2ccc(O)cc2)NC(=O)[C@H](CCC(N)=O)NC(=O)CSC[C@@H](C(=O)N[C@@H](C)C(N)=O)NC(=O)[C@H]([C@@H](C)O)NC(=O)[C@H](C(C)C)NC1=O [Compound 1046] ({CH2CO}-QYDWV[Bip]R[NMeA][dL]RLVTCA-NH2; thioether N-14) | 0.1
14 | CC[C@H](C)C1NC(=O)[C@H](Cc2ccc(-c3ccccc3)cc2)NC(=O)[C@H](C(C)C)NC(=O)[C@H](Cc2c[nH]c3ccccc23)NC(=O)[C@H](CC(=O)O)NC(=O)[C@H](Cc2ccc(C(=O)O)cc2)NC(=O)[C@H](CC(N)=O)NC(=O)CSC[C@@H](C(=O)N[C@@H](C)C(N)=O)NC(=O)[C@H]([C@@H](C)O)NC(=O)[C@H](C(C)C)NC(=O)[C@H](CC(C)C)NC(=O)[C@H](CCN)NC(=O)[C@@H](CC(C)C)NC(=O)[C@H](C)N(C)C1=O (stereo partly drawn) [Compound 1395] ({CH2CO}-N[Phe(4-COOH)]DWV[Bip][ξIle][NMeA][dL][Dab]LVTCA-NH2; thioether N-14) | 0.02
